Columns and labels:
Assay in all cases: Kinase panel
Format in all cases: biochemical
Conditions in all cases: read-out: % Residual Activity
ARK5(h) = molecular target: T1, ARK5(h) (Homo sapiens, UniProt O60285)
T1 construct: purchased Eurofins (KinaseProfiler)
Summary of the method: (§1)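 Rilpivirine was screened across the kinome for selectivity; inhibition was then quantified radiometrically at Km ATP, and Cheng–Prusoff was applied to derive Ki from IC50.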

Abl(m) = molecular target: T2, Abl(m) (Mus musculus, UniProt P00520)
T2 construct: purchased Eurofins (KinaseProfiler)
Summary of the method: as §1

B-Raf(V599E)(h) = molecular target: T3, B-Raf(V599E)(h) (Homo sapiens, UniProt P15056, V600E)
T3 construct: purchased Eurofins (KinaseProfiler)
T3 sequence (P15056 417-766 V600E limits assumed): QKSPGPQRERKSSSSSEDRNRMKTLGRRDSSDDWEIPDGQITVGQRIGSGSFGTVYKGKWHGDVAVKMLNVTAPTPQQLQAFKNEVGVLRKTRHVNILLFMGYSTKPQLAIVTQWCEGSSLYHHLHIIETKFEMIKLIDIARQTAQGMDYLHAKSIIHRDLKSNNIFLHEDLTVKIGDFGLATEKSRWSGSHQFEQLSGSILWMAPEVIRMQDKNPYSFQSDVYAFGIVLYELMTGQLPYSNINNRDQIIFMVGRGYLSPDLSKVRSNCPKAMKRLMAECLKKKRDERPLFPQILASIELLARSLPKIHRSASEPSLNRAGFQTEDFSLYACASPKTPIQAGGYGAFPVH
Summary of the method: as §1

Blk(h) = molecular target: T4, Blk(h) (Homo sapiens, UniProt P51451)
T4 construct: purchased Eurofins (KinaseProfiler)
Summary of the method: as §1

Blk(m) = molecular target: T5, Blk(m) (Mus musculus, UniProt P16277)
T5 construct: purchased Eurofins (KinaseProfiler)
Summary of the method: as §1

CDKL3(h) = molecular target: T6, CDKL3(h) (Homo sapiens, UniProt Q8IVW4)
T6 construct: purchased Eurofins (KinaseProfiler)
Summary of the method: as §1

CHK2(I157T)(h) = molecular target: T7, CHK2(I157T)(h) (Homo sapiens, UniProt O96017, I157T)
T7 construct: purchased Eurofins (KinaseProfiler)
Summary of the method: as §1

CK1α(h) = molecular target: T8, CK1α(h) (Homo sapiens, UniProt P48729)
T8 construct: purchased Eurofins (KinaseProfiler)
Summary of the method: as §1

CaMKK1(h) = molecular target: T9, CaMKK1(h) (Homo sapiens, UniProt Q8N5S9)
T9 construct: purchased Eurofins (KinaseProfiler)
Summary of the method: as §1

Cdc7/cyclinB1(h) = molecular target: T10, Cdc7/cyclinB1(h) (Homo sapiens, UniProt O00311)
T10 construct: purchased Eurofins (KinaseProfiler)
Summary of the method: as §1

FGFR2(N549H)(h) = molecular target: T11, FGFR2(N549H)(h) (Homo sapiens, UniProt P21802, N549H)
T11 construct: purchased Eurofins (KinaseProfiler)
Summary of the method: as §1

Flt1(h) = molecular target: T12, Flt1(h) (Homo sapiens, UniProt P17948)
T12 construct: purchased Eurofins (KinaseProfiler)
Summary of the method: as §1

ICK(h) = molecular target: T13, ICK(h) (Homo sapiens, UniProt Q9UPZ9)
T13 construct: purchased Eurofins (KinaseProfiler)
Summary of the method: as §1

IGF-1R(h) = molecular target: T14, IGF-1R(h) (Homo sapiens, UniProt P08069)
T14 construct: purchased Eurofins (KinaseProfiler)
Summary of the method: as §1

LKB1(h) = molecular target: T15, LKB1(h) (Homo sapiens, UniProt Q15831)
T15 construct: purchased Eurofins (KinaseProfiler)
Summary of the method: as §1

MINK(h) = molecular target: T16, MINK(h) (Homo sapiens, UniProt Q8N4C8)
T16 construct: purchased Eurofins (KinaseProfiler)
Summary of the method: as §1

MST4(h) = molecular target: T17, MST4(h) (Homo sapiens, UniProt Q9P289)
T17 construct: purchased Eurofins (KinaseProfiler)
Summary of the method: as §1

Mnk2(h) = molecular target: T18, Mnk2(h) (Homo sapiens, UniProt Q9HBH9)
T18 construct: purchased Eurofins (KinaseProfiler)
Summary of the method: as §1

NEK7(h) = molecular target: T19, NEK7(h) (Homo sapiens, UniProt Q8TDX7)
T19 construct: purchased Eurofins (KinaseProfiler)
Summary of the method: as §1

NIM1(h) = molecular target: T20, NIM1(h) (Homo sapiens, UniProt Q8IY84)
T20 construct: purchased Eurofins (KinaseProfiler)
Summary of the method: as §1

NUAK2(h) = molecular target: T21, NUAK2(h) (Homo sapiens, UniProt Q9H093)
T21 construct: purchased Eurofins (KinaseProfiler)
Summary of the method: as §1

PAK5(h) = molecular target: T22, PAK5(h) (Homo sapiens, UniProt Q9P286)
T22 construct: purchased Eurofins (KinaseProfiler)
T22 sequence (Q9P286 whole entry): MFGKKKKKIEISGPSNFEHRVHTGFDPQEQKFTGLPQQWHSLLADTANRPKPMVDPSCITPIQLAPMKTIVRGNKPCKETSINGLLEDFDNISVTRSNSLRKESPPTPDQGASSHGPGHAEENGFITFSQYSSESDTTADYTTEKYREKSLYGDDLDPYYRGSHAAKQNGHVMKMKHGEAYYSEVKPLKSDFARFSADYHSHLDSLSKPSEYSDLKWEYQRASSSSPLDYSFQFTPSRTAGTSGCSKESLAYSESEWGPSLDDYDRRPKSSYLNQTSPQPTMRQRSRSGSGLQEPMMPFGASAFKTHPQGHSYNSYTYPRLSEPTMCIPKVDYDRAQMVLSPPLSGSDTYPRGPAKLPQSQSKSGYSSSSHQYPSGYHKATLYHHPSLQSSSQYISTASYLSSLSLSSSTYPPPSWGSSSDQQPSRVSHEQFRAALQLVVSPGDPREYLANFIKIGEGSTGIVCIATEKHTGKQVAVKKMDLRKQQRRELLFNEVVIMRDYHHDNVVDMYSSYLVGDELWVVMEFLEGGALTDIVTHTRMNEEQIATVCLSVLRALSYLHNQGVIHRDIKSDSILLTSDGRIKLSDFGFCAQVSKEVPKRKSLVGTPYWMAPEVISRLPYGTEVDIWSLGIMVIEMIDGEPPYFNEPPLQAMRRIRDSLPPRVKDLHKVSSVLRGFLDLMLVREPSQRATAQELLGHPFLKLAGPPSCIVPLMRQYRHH
Summary of the method: as §1

PKCγ(h) = molecular target: T23, PKCγ(h) (Homo sapiens, UniProt P05129)
T23 construct: purchased Eurofins (KinaseProfiler)
Summary of the method: as §1

PKCη(h) = molecular target: T24, PKCη(h) (Homo sapiens, UniProt P24723)
T24 construct: purchased Eurofins (KinaseProfiler)
Summary of the method: as §1

PRK2(h) = molecular target: T25, PRK2(h) (Homo sapiens, UniProt Q16513)
T25 construct: purchased Eurofins (KinaseProfiler)
Summary of the method: as §1

Ret (V804L)(h) = molecular target: T26, Ret (V804L)(h) (Homo sapiens, UniProt P07949, V804L)
T26 construct: purchased Eurofins (KinaseProfiler)
T26 sequence (P07949 29-1114 V804L): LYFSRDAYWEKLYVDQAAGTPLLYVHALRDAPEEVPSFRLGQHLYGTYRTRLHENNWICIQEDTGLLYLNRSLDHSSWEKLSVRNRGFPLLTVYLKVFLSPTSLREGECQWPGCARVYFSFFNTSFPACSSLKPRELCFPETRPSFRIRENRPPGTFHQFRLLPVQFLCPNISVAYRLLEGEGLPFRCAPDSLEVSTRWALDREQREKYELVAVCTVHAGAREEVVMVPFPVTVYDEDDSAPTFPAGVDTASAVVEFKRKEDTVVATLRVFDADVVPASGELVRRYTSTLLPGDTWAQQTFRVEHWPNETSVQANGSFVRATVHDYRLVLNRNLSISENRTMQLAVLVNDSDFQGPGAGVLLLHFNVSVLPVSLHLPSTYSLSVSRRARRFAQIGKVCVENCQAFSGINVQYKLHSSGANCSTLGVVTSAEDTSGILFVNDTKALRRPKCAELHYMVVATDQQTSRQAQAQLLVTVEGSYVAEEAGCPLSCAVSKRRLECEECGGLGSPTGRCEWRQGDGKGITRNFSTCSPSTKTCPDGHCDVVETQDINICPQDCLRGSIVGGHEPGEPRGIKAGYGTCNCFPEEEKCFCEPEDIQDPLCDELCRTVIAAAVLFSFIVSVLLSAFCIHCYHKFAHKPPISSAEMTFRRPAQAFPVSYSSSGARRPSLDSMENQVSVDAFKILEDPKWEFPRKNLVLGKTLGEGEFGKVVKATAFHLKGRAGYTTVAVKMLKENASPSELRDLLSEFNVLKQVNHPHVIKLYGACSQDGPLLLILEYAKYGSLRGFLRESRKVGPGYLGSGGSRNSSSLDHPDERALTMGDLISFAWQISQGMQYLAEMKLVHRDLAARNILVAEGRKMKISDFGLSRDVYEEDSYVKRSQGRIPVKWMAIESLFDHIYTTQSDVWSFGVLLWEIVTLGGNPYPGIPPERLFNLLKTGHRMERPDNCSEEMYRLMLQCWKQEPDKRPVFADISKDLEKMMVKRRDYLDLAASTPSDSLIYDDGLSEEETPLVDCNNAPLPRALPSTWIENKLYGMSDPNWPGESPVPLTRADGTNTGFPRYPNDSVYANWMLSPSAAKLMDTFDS
Summary of the method: as §1

Ros(h) = molecular target: T27, Ros(h) (Homo sapiens, UniProt P08922)
T27 construct: purchased Eurofins (KinaseProfiler)
Summary of the method: as §1

SBK1(h) = molecular target: T28, SBK1(h) (Homo sapiens, UniProt Q52WX2)
T28 construct: purchased Eurofins (KinaseProfiler)
Summary of the method: as §1

SNRK(h) = molecular target: T29, SNRK(h) (Homo sapiens, UniProt Q9NRH2)
T29 construct: purchased Eurofins (KinaseProfiler)
Summary of the method: as §1

STK16(h) = molecular target: T30, STK16(h) (Homo sapiens, UniProt O75716)
T30 construct: purchased Eurofins (KinaseProfiler)
Summary of the method: as §1

STK32B(h) = molecular target: T31, STK32B(h) (Homo sapiens, UniProt Q9NY57)
T31 construct: purchased Eurofins (KinaseProfiler)
Summary of the method: as §1

Src(1-530)(h) = molecular target: T32, Src(1-530)(h) (Homo sapiens, UniProt P12931)
T32 construct: purchased Eurofins (KinaseProfiler)
T32 sequence (P12931 1-530 limits assumed): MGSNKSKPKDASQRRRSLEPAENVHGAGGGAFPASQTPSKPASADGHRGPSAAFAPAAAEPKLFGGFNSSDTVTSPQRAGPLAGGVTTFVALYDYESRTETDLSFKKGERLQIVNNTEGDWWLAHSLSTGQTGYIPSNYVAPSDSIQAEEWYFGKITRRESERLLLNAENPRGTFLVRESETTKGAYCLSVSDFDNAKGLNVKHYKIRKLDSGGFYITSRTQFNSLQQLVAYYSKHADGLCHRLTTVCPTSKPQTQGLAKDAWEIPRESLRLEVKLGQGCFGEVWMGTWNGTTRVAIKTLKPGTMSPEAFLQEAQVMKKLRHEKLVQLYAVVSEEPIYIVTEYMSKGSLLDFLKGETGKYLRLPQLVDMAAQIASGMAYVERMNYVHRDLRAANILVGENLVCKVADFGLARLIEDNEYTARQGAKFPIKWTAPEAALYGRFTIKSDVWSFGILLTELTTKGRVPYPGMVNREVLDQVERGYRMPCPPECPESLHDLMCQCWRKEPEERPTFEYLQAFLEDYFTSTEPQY
Summary of the method: as §1

TLK1(h) = molecular target: T33, TLK1(h) (Homo sapiens, UniProt Q9UKI8)
T33 construct: purchased Eurofins (KinaseProfiler)
T33 sequence (Q9UKI8 whole entry): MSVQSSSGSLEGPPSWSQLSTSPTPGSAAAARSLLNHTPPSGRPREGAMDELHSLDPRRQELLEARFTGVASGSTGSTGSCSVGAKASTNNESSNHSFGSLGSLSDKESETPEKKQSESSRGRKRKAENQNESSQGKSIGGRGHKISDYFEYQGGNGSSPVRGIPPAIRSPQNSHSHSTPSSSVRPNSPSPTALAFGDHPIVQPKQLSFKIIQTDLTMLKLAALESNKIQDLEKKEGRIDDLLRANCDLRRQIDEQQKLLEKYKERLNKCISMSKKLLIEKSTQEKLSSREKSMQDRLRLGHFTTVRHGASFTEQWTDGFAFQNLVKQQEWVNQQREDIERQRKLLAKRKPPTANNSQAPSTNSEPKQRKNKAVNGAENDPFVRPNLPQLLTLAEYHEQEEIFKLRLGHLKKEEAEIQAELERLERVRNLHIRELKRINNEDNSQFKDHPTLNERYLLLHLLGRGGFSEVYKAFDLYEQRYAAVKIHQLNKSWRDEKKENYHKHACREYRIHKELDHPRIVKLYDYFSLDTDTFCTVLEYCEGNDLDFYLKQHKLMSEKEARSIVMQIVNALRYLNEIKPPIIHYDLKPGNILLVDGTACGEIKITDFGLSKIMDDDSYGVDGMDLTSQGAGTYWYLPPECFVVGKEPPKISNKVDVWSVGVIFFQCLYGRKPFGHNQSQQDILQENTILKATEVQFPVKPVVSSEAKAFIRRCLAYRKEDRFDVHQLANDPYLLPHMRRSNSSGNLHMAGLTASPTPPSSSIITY
Summary of the method: as §1

TNIK(h) = molecular target: T34, TNIK(h) (Homo sapiens, UniProt Q9UKE5)
T34 construct: purchased Eurofins (KinaseProfiler)
T34 sequence (Q9UKE5 whole entry): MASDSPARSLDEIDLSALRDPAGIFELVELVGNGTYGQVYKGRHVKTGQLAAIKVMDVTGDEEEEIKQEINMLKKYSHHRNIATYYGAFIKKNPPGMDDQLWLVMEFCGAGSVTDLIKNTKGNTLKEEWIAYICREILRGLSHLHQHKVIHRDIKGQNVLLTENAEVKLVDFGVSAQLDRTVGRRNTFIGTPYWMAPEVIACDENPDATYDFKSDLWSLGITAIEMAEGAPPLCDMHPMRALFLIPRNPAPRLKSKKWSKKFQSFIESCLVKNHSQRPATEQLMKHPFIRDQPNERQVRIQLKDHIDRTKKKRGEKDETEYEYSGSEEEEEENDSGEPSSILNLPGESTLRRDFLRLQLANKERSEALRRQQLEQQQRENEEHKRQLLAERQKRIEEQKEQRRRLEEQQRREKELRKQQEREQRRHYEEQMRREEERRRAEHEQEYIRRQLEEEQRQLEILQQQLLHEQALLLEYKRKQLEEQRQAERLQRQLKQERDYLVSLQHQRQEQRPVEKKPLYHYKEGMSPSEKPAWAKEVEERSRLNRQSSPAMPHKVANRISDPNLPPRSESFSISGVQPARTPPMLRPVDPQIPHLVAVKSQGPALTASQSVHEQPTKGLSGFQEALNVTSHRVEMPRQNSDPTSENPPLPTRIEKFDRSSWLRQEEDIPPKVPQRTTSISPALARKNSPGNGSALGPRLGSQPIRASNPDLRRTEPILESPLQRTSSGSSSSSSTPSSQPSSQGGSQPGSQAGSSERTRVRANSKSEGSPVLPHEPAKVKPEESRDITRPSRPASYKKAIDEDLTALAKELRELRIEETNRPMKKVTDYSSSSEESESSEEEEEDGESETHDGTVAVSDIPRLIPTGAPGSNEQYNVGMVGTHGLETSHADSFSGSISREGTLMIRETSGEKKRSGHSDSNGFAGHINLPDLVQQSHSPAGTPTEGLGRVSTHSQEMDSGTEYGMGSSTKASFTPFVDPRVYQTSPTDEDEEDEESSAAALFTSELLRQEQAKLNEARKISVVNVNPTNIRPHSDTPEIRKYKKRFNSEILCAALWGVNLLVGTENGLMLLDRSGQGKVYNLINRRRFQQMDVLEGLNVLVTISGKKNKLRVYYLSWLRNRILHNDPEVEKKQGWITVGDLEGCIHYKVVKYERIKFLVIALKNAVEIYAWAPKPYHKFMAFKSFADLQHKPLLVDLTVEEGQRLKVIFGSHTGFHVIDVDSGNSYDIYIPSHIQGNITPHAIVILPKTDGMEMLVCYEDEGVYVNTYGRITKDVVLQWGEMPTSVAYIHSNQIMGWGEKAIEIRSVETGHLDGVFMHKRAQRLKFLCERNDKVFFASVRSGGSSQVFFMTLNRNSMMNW
Summary of the method: as §1

TSSK3(h) = molecular target: T35, TSSK3(h) (Homo sapiens, UniProt Q96PN8)
T35 construct: purchased Eurofins (KinaseProfiler)
Summary of the method: as §1

TTBK1(h) = molecular target: T36, TTBK1(h) (Homo sapiens, UniProt Q5TCY1)
T36 construct: purchased Eurofins (KinaseProfiler)
Summary of the method: as §1

WNK2(h) = molecular target: T37, WNK2(h) (Homo sapiens, UniProt Q9Y3S1)
T37 construct: purchased Eurofins (KinaseProfiler)
Summary of the method: as §1

mTOR(h) = molecular target: T38, mTOR(h) (Homo sapiens, UniProt P42345)
T38 construct: purchased Eurofins (KinaseProfiler)
Summary of the method: as §1

For Cc1cc(/C=C/C#N)cc(C)c1Nc1ccnc(Nc2ccc(C#N)cc2)n1 [rilpivirine, (E)-4-((4-((4-(2-cyanoethenyl)-2,6-dimethylphenyl)amino)pyrimidin-2-yl)amino)benzonitrile], the remaining activity at 1 µM (ARK5(h)) was 82%, the remaining activity at 1 µM (Abl(m)) was 63% and the remaining activity at 1 µM (B-Raf(V599E)(h)) was 95%. The remaining activity at 1 µM (Blk(h)) was 73%, the remaining activity at 1 µM (Blk(m)) was 75% and the remaining activity at 1 µM (CDKL3(h)) was 58%. It also gave a remaining activity at 1 µM (CHK2(I157T)(h)) of 97%, a remaining activity at 1 µM (CK1α(h)) of 103% and a remaining activity at 1 µM (CaMKK1(h)) of 90%. It also gave a remaining activity at 1 µM (Cdc7/cyclinB1(h)) of 93%, a remaining activity at 1 µM (FGFR2(N549H)(h)) of 91% and a remaining activity at 1 µM (Flt1(h)) of 100%. For the same compound, the remaining activity at 1 µM (ICK(h)) was 99%, the remaining activity at 1 µM (IGF-1R(h)) was 89% and the remaining activity at 1 µM (LKB1(h)) was 87%. It also gave a remaining activity at 1 µM (MINK(h)) of 80%, a remaining activity at 1 µM (MST4(h)) of 91% and a remaining activity at 1 µM (Mnk2(h)) of 85%. For the same compound, the remaining activity at 1 µM (NEK7(h)) was 110%, the remaining activity at 1 µM (NIM1(h)) was 88% and the remaining activity at 1 µM (NUAK2(h)) was 101%. The remaining activity at 1 µM (PAK5(h)) was 91%, the remaining activity at 1 µM (PKCγ(h)) was 103% and the remaining activity at 1 µM (PKCη(h)) was 103%. The remaining activity at 1 µM (PRK2(h)) was 74%, the remaining activity at 1 µM (Ret (V804L)(h)) was 91% and the remaining activity at 1 µM (Ros(h)) was 77%. It also gave a remaining activity at 1 µM (SBK1(h)) of 100%, a remaining activity at 1 µM (SNRK(h)) of 104% and a remaining activity at 1 µM (STK16(h)) of 58%. It also gave a remaining activity at 1 µM (STK32B(h)) of 99%, a remaining activity at 1 µM (Src(1-530)(h)) of 31% and a remaining activity at 1 µM (TLK1(h)) of 95%. The remaining activity at 1 µM (TNIK(h)) was 50%, the remaining activity at 1 µM (TSSK3(h)) was 95% and the remaining activity at 1 µM (TTBK1(h)) was 90%. For the same compound, the remaining activity at 1 µM (WNK2(h)) was 80% and the remaining activity at 1 µM (mTOR(h)) was 97%.
